Experimental data published in the supplement of paper PMC10307832.

Columns and labels:
Assay in all cases: relative viability (nuclei count vs DMSO), 5 days (fraction); higher = more cells survive
[1] = compound: CN(c1ncccc1CNc1nc(Nc2ccc3c(c2)CC(=O)N3)ncc1C(F)(F)F)S(C)(=O)=O + CC1(C)CCC(c2ccc(Cl)cc2)=C(CN2CCN(c3ccc(C(=O)NS(=O)(=O)c4ccc(N[C@H](CCN5CCOCC5)CSc5ccccc5)c(S(=O)(=O)C(F)(F)F)c4)cc3)CC2)C1 [Navitoclax] (partner 0.5 µM)
How it was run: (§1)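 Each reported value is a median over duplicate plates. It expresses relative viability: treated-well nuclei count divided by vehicle-well nuclei count. Lung cancer cell lines in 1536-well plates were dosed by pin tool a day after seeding, alone with one drug or with a fixed anchor-drug dose plus five library-drug doses (not always all listed) in √10 steps, and nuclei were counted after 5 days.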

[2] = compound: CN(c1ncccc1CNc1nc(Nc2ccc3c(c2)CC(=O)N3)ncc1C(F)(F)F)S(C)(=O)=O + C[C@]1(O)C[C@@H](c2nc(-c3ccc4ccc(-c5ccccc5)nc4c3)c3c(N)nccn32)C1 [Linsitinib] (partner 1 µM)
How it was run: as §1

[3] = compound: CN(c1ncccc1CNc1nc(Nc2ccc3c(c2)CC(=O)N3)ncc1C(F)(F)F)S(C)(=O)=O + Nc1nc2[nH]cc(CCc3ccc(C(=O)N[C@@H](CCC(=O)O)C(=O)O)cc3)c2c(=O)[nH]1 [Pemetrexed] (partner 0.2 µM)
How it was run: as §1

[4] = compound: CN(c1ncccc1CNc1nc(Nc2ccc3c(c2)CC(=O)N3)ncc1C(F)(F)F)S(C)(=O)=O + O=C(CCCCCCC(=O)Nc1ccccc1)NO [Vorinostat] (partner 1 µM)
How it was run: as §1

| Cell Line | relative viability ([1]; first compound 0.01 µM) | relative viability ([1]; first compound 0.03162 µM) | relative viability ([1]; first compound 0.1 µM) | relative viability ([1]; first compound 0.3162 µM) | relative viability ([1]; first compound 1 µM) | relative viability ([2]; first compound 0.01 µM) | relative viability ([2]; first compound 0.03162 µM) | relative viability ([2]; first compound 0.1 µM) | relative viability ([2]; first compound 0.3162 µM) | relative viability ([2]; first compound 1 µM) | relative viability ([3]; first compound 0.01 µM) | relative viability ([3]; first compound 0.03162 µM) | relative viability ([3]; first compound 0.1 µM) | relative viability ([3]; first compound 0.3162 µM) | relative viability ([3]; first compound 1 µM) | relative viability ([4]; first compound 0.01 µM) | relative viability ([4]; first compound 0.03162 µM) | relative viability ([4]; first compound 0.1 µM) | relative viability ([4]; first compound 0.3162 µM) | relative viability ([4]; first compound 1 µM) |
| --- | --- | --- | --- | --- | --- | --- | --- | --- | --- | --- | --- | --- | --- | --- | --- | --- | --- | --- | --- | --- |
| 201T | 1.21 | 1.26 | 1.18 | 1.16 | 1.15 | 1.05 | 1.04 | 1.04 | 1.01 | 0.995 | 0.336 | 0.333 | 0.383 | 0.34 | 0.316 | 0.971 | 0.98 | 0.915 | 0.9 | 0.923 |
| A-427 | 0.999 | 0.973 | 1.02 | 0.973 | 0.945 | 1.12 | 1.12 | 1.1 | 1.14 | 1.06 | 0.939 | 0.956 | 0.932 | 0.955 | 0.948 | 0.892 | 0.874 | 0.878 | 0.903 | 0.859 |
| ABC-1 | – | – | – | – | – | 0.908 | 0.914 | 0.75 | 0.814 | 0.967 | – | – | – | – | – | 1.02 | 0.948 | 1.28 | 1.11 | 1.27 |
| BEN | 0.0691 | 0.0546 | 0.0649 | 0.0815 | 0.0763 | 0.912 | 0.972 | 0.938 | 0.879 | 1.04 | 0.771 | 0.753 | 0.777 | 0.809 | 0.671 | 0.546 | 0.625 | 0.578 | 0.544 | 0.554 |
| CAL-12T | 1.25 | 1.1 | 1.27 | 1.27 | 0.883 | 0.886 | 0.861 | 0.705 | 0.616 | 0.639 | 1.24 | 1.12 | 1.25 | 1.36 | 0.982 | 0.91 | 0.854 | 0.726 | 0.767 | 0.708 |
| COR-L23 | 0.929 | 1.09 | 0.933 | 1.01 | 0.826 | 0.853 | 0.983 | 0.818 | 1.07 | 0.735 | 0.202 | 0.18 | 0.211 | 0.205 | 0.203 | 0.471 | 0.392 | 0.327 | 0.305 | 0.295 |
| COR-L 105 | 0.773 | 0.833 | 0.869 | 0.777 | 0.493 | 0.964 | 1 | 1.09 | 0.882 | 0.67 | 1.09 | 1.06 | 1.07 | 1.11 | 1.05 | 0.813 | 0.865 | 0.873 | 0.855 | 0.619 |
| Calu-6 | 0.848 | 0.863 | 0.78 | 0.777 | 0.772 | 1.05 | 0.992 | 0.892 | 0.955 | 0.914 | – | – | – | – | – | – | – | – | – | – |
| ChaGo-K-1 | 1.04 | 0.819 | 1.11 | – | 1.08 | – | – | – | – | – | 0.252 | 0.254 | 0.264 | 0.258 | 0.246 | 0.756 | 0.708 | 0.778 | 0.816 | 0.738 |
| EKVX | 0.974 | 1.02 | 0.944 | 0.852 | 0.81 | 0.94 | 1.13 | 0.85 | 0.931 | 0.882 | 0.436 | 0.413 | 0.347 | 0.401 | 0.382 | 0.638 | 0.746 | 0.638 | 0.627 | 0.494 |
| EMC-BAC-2 | 1.18 | 1.24 | 1.05 | 1.16 | 1.2 | 0.797 | 0.838 | 0.792 | 0.79 | 0.804 | 0.427 | 0.471 | 0.433 | 0.472 | 0.45 | 0.46 | 0.229 | 0.446 | 0.44 | 0.443 |
| EPLC-272H | 1.28 | 1.08 | 1.16 | 1.35 | 0.97 | 1.21 | 1.12 | 1.22 | 1.33 | 1.12 | 0.332 | 0.349 | 0.375 | 0.345 | 0.313 | 0.546 | 0.23 | 0.408 | 0.564 | 0.263 |
| H3255 | 0.606 | 0.518 | 0.616 | 0.475 | 0.35 | 0.924 | 0.949 | 0.988 | 0.912 | 0.922 | 0.647 | 0.585 | 0.541 | 0.614 | 0.549 | 0.881 | 0.931 | 0.767 | 0.796 | 0.743 |
| HARA | 1.18 | 1.19 | 1.14 | 0.91 | 0.968 | 0.945 | 1.06 | 1.03 | 0.978 | 0.856 | 0.255 | 0.248 | 0.199 | 0.258 | 0.223 | 0.569 | 0.573 | 0.55 | 0.516 | 0.432 |
| HCC-15 | 0.716 | 0.745 | 0.639 | 0.579 | 0.507 | 0.898 | 0.894 | 0.802 | 0.86 | 0.688 | 0.22 | 0.237 | 0.218 | 0.21 | 0.215 | 0.79 | 0.796 | 0.741 | 0.77 | 0.675 |
| HCC-44 | 0.977 | 1.15 | 0.951 | 0.905 | 0.756 | 0.73 | 0.688 | 0.722 | 0.714 | 0.664 | 0.668 | 0.622 | 0.639 | 0.65 | 0.611 | 1.1 | 1.06 | 1.13 | 1.14 | 1.1 |
| HCC-78 | 0.81 | 0.845 | 0.73 | 0.632 | 0.674 | 0.654 | 0.578 | 0.425 | 0.439 | 0.486 | 0.907 | 0.922 | 0.921 | 0.922 | 0.929 | 0.526 | 0.47 | 0.431 | 0.414 | 0.403 |
